Test results taken from patent US9187474B2, “Raf inhibitor compounds” (Deciphera Pharmaceuticals, LLC, priority 2012, dated 2015).
Where a name gives a salt, the structure may show the parent alone. Read-outs that look alike come from different tables or passages of the source.

Assays:
A375 xenograft tumor = experiment: A375 mouse xenograft efficacy model; assay type: in vivo, mice; settings: oral, 21 days
Method: (§1) To further evaluate in vivo activity of compounds of Formula I, an A375 xenograft tumor model is utilized. Briefly, 10×10^6 cells in a 1:1 matrigel mix (0.2 mL total volume) are implanted by subcutaneous injection in the hind leg of nude female mice. A total of 8-10 mice in each group are used. Treatment is initiated with oral administration (gavage) of a test compound or vehicle (20% captisol, 25 mM phosphate, pH2.0) in 0.2 mL volume when tumor size reaches approximately 300-500 mg. Test compound is orally dosed twice or thrice a day for 21 days. Tumor growth and body weight are monitored over time to evaluate efficacy and signs of toxicity. Bidimensional measurements of tumors are performed twice a week and tumor volumes are calculated based on the following formula: (Tumor Volume)=[(L)×(W^2)×(π/6)] where L is mid-axis length and W is mid-axis width. Tumor volume data are transformed to a log scale to equalize variance across time and treatment groups. The log volume data are analyzed with a two-way repeated measures analysis of variance by time and treatment using the MIXED procedures in SAS software (version 8.2). The correlation model for the repeated measures is spatial power. Treated groups are compared to the control group at each time point. The MIXED procedure is also used separately for each treatment group to calculate adjusted means and standard errors at each time point. Both analyses account for the autocorrelation within each animal and the loss of data that occurs when animals with large tumors are removed from the study early. The adjusted means and standard errors are plotted for each treatment group versus time.

[1] = test system: phospho-ERK in A375 (B-Raf V600E) xenograft; experiment: A375 mouse xenograft pharmacodynamic assay (tumor pERK by ELISA); assay type: in vivo, mice; settings: A-375, 20 mg/kg oral, 2 h post dose, vs vehicle, read-out: Measured pERK inhibition 2 h post dose
Method: To evaluate the in vivo pharmacodynamic (PD) effects of compounds of Formula I, an A375 (B-Raf V600E) xenograft model is employed. Briefly, 10×10^6 A375 tumor cells (ATCC) are prepared in a 1:1 matrigel mix (0.2 mL total volume) and implanted by subcutaneous injection in hind leg of nude female mice. A total of 4 mice each for each dosing group are employed. Treatment is initiated with oral administration (gavage) of test compound or vehicle (20% captisol, 25 mM phosphate, pH2.0) in 0.2 mL volume when average tumor size reaches approximately 300 mg. After a fixed time interval, the tumors are harvested and the phospho-ERK levels are measured by ELISA (Enzyme-linked immunosorbent assay). Treated groups are compared to the vehicle control group to calculate % inhibition.

[2] = Body weight in A375 mouse xenograft efficacy model; assay type: in vivo, mice; settings: oral, 21 days
Method: as §1

A-Raf = A-Raf (Homo sapiens (Human), UniProt P10398); experiment: ActivX KiNativ A375 whole cell lysate assay; assay type: binding
Chain of A-Raf (P10398 whole entry): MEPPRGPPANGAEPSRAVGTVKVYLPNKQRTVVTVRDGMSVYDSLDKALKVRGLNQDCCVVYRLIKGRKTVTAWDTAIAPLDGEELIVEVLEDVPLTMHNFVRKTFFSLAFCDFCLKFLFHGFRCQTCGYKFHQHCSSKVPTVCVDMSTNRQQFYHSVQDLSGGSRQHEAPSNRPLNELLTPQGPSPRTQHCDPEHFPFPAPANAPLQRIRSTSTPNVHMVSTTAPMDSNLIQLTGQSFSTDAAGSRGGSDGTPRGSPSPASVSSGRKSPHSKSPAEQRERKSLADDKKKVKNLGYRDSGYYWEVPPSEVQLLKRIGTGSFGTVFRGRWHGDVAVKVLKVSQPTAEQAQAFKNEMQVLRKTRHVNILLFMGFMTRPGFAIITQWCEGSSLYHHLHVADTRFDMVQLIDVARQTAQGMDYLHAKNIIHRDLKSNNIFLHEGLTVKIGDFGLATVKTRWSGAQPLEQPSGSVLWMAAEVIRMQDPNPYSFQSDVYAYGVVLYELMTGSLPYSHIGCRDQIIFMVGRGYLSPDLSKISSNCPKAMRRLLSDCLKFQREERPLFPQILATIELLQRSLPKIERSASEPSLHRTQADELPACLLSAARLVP
Method: (§2) To further evaluate the enzymatic pan Raf activities of test compounds, they are evaluated in a KiNativ assay developed and carried out by ActivX Biosciences Inc. using whole cell lysates of A375 cells. A375 cells are human melanoma cells with a B-Raf V600E mutation.
(§3) Sample preparation: A375 cells from ATCC are lysed by sonication in commercially available lysis buffer, cleared by centrifugation, and the resulting supernatant gel filtered into a commercially available kinase reaction buffer containing 20 mM MnCl2. Final protein concentration of lysates are 10 mg/mL. 5 μL of each test compound is added from 100 μM, 10 μM, 1 μM, or 0.1 μM stock solutions in DMSO to 500 uL of lysate in duplicate for final concentrations of 1 μM, 0.1 μM, 0.01 μM, and 0.001 μM. 5 μL of DMSO is added to 500 μL of lysate in quadruplicate for controls. After 15 minute incubation, desthiobiotin-ATP acylphosphate probe is added to each sample to a final concentration of 5 μM and incubated with the samples for 10 minutes. Following the probe reaction, samples are prepared for targeted mass spectrum analysis using ActivX standard protocol. Briefly, samples are prepared for trypsin digestion (denature, reduce alkylate), digested with trypsin, and desthio-biotinylated peptides are enriched on streptavidin resin.
(§4) Data collection: Enriched peptide samples are analyzed by LC-MS/MS on a Thermo-LTQ Velos ion trap mass spectrometer using ActivX data collection methodology for A375 cells.
(§5) Data analysis: All quantitation is performed by extracting characteristic fragment ion signals from targeted MS/MS spectra and comparing signals in control and treated samples. ActivX software is used with manual validation/visual inspection performed as needed based on data flagging/filtering measures. All inhibition data points are visually verified, as are all data points showing variability outside of normal limits.

C-Raf = C-Raf (Homo sapiens (Human), UniProt P04049); experiment: ActivX KiNativ A375 whole cell lysate assay; assay type: binding
Chain of C-Raf (P04049 whole entry): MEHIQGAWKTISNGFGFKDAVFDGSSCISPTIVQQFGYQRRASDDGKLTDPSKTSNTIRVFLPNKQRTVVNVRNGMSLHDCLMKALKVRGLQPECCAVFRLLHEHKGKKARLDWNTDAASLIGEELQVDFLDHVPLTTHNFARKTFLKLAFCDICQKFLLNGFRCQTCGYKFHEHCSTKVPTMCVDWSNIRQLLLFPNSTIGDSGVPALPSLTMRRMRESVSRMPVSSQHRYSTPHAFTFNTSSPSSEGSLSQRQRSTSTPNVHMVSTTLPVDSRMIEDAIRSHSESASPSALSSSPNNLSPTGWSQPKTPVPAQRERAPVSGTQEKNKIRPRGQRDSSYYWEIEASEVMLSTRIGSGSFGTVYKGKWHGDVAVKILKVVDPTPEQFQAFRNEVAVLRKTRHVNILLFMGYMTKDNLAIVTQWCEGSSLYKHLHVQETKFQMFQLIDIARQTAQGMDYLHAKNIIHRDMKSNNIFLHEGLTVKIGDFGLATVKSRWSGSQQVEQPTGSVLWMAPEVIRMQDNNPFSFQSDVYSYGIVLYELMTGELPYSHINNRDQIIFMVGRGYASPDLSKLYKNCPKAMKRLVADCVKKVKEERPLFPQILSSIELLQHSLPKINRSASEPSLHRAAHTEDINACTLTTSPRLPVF
Method: as §2, §3, §4, §5

B-Raf (V600E) = B-Raf (V600E) (Homo sapiens (Human), UniProt P15056, V600E); experiment: ActivX KiNativ A375 whole cell lysate assay; assay type: binding
Chain of B-Raf (V600E) (P15056 whole entry V600E): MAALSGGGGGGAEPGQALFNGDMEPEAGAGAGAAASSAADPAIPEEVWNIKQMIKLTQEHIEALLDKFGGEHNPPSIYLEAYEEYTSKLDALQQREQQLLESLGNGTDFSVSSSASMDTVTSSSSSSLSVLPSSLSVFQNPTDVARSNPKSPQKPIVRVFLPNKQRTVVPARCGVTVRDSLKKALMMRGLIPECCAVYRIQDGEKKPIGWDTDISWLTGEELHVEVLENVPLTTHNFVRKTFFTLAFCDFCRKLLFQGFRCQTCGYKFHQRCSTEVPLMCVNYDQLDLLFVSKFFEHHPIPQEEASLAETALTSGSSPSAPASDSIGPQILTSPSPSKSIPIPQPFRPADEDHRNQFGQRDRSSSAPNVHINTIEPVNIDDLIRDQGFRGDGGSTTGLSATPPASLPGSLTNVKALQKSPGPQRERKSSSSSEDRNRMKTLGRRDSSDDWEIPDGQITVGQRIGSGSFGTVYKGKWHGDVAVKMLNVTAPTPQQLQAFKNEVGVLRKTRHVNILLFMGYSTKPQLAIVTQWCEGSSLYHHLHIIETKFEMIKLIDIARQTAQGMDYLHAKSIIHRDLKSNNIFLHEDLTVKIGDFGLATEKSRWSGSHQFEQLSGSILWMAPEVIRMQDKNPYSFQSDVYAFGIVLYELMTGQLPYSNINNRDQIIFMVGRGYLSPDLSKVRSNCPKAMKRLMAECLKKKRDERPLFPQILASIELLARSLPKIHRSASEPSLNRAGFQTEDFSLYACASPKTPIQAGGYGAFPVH
Method: as §2, §3, §4, §5

[3] = test system: phospho-ERK in HCT-116 cells; experiment: HCT-116 cell pERK assay (AlphaScreen SureFire); assay type: cell-based; settings: for IC50: Homo sapiens, HCT-116 cells, B-Raf wild type, K-Ras mutation, 4 hours, read-out: IC50 reduction of phospho-ERK signal
Method: Examples of Formula I are tested against HCT-116 cells harboring wild type B-Raf and K-Ras mutation. The phospho-ERK activities are evaluated as described below.
HCT-116 cells (catalog #CCL-247) are obtained from the American Type Culture Collection (ATCC, Manassas, Va.). Briefly, cells are grown in McCoy's 5A supplemented with 10% characterized fetal bovine serum (Invitrogen, Carlsbad, Calif.), and 1% Penicillin/Streptomycin/L-Glutamine at 37 degrees Celsius, 5% CO2, and 95% humidity. Cells are allowed to expand until reaching 75-90% confluency at which point they are subcultured or harvested for assay use. HCT-116 cells suspended in complete media are added to 384-well tissue culture treated plates (3×10^5 cells/mL; 7,500 cells per well). The cells are incubated overnight at 37 degrees Celsius, 5% CO2, and 95% humidity. Next, test compound or DMSO diluted in complete media is added to the wells (0.25% final DMSO concentration). The plates are then incubated for 4 hours at 37 degrees Celsius, 5% CO2, and 95% humidity. Following compound incubation, the cells are lysed at 4° C. for 20 minutes with shaking Cell lysates are centrifuged and the supernatant is transferred to a new plate. An aliquot of each lysate is transferred to a white 384-well assay plate. Using the AlphaScreen SureFire pERK kit (Perkin-Elmer, Waltham, Mass.), an acceptor bead mixture is added to each well and incubated for 2 h at room temperature in the dark. A donor bead mixture is then added to each well and incubated for 2 h at room temperature in the dark. Plates are read using a Synergy2 plate reader (Biotek, Winooski, Vt.) in Plate Mode with Timing Control. Read: (F)1: excitation: 680/30 nm, emission: Plug. 2: Excitation: Plug, emission: 570/100 nm. Top mirror 635 nm. Data is analyzed using Prism software (Graphpad, San Diego, Calif.) to calculate IC50 values and Excel software (Microsoft, Redmond, Wash.) to calculate stimulation compared to control.

[4] = test system: A-Raf, B-RafV600E and C-Raf; experiment: ActivX KiNativ A375 whole cell lysate assay, summary over Raf isoforms; assay type: binding, human; settings: A375 cells; summary of Table 1
Method: as §2
as §3, with “Following the probe reaction, samples are prepared for targeted mass spectrum analysis using ActivX standard protocol. Briefly, samples are prepared for trypsin digestion (denature, reduce alkylate), digested with trypsin, and desthio-biotinylated peptides are enriched on streptavidin resin.” left out
as §4
Data analysis: All quantitation is performed by extracting characteristic fragment ion signals from targeted MS/MS spectra and comparing signals in control and treated samples. […]

A375res cells [5] = experiment: Proliferation assay in vemurafenib-resistant A375res melanoma cells; settings: for IC50: Homo sapiens, 72 h
Source text: (§6) A vemurafenib-resistant cell line is generated by chronic treatment of the human melanoma cell line A375 (ATCC) harboring the B-Raf V600E mutation with increasing concentrations PLX4720.

A375res cells [6] = test system: A375res cells
Source text: as §6

A375 cells = experiment: A375 cell proliferation assay (72 hour); assay type: cell-based; settings: Homo sapiens, A-375, parental A375 cells
Method: A375 cells (catalog #CRL-1619) are obtained from the American Type Culture Collection (ATCC, Manassas, Va.). Briefly, cells are grown in DMEM High Glucose supplemented with 10% characterized fetal bovine serum (Invitrogen, Carlsbad, Calif.) and 1% Penicillin/Streptomycin/L-Glutamine at 37 degrees Celsius, 5% CO2, and 95% humidity. Cells are allowed to expand until reaching 70-95% confluency at which point they are subcultured or harvested for assay use. A serial dilution of test compound is dispensed into a 384-well black clear bottom plate in triplicate. Six hundred twenty-five cells are added per well in 50 μL complete growth medium in the 384-well plate. Plates are incubated for 67 hours at 37 degrees Celsius, 5% CO2, and 95% humidity. […] Plates are read on a Synergy2 reader (Biotek, Winooski, Vt.) using an excitation of 540 nm and an emission of 600 nm. Data is analyzed using Prism software (Graphpad, San Diego, Calif.) to calculate IC50 values.

[7] = twice a day at 12 mg/kg or thrice per day at 8 or 12 mg/kg

Row | SMILES | inhibition in vivo at 20 mg/kg [1] | IC50 [3] | IC50 (A375res cells [5]; read-out: absolute IC50 values) | IC50 shift A375 to A375res (A375res cells [6]) | other results
1 | CNc1cc2nc(C)c(-c3cc(NC(=O)NCCC(C)(C)C)c(F)cc3F)cc2cn1 [Example 18, 1-(2,4-difluoro-5-(2-methyl-7-(methylamino)-1,6-naphthyridin-3-yl)phenyl)-3-(3,3-dimethylbutyl)urea] | 93% | 2 to 96 nM |  |  | tumor growth (A375 xenograft tumor; [7]): tumor growth inhibition; animal body weight loss [2, 7]: minimal animal body weight loss; IC50 (A-Raf): 31 nM; IC50 (C-Raf): 20 nM; IC50 (B-Raf (V600E); first B-Raf (V600E) column): 35 nM; IC50 (B-Raf (V600E); second B-Raf (V600E) column): 37 nM; IC50 [4]: < 170 nM
2 | Cc1nc2cc(NCCO)ncc2cc1-c1cc(NC(=O)NCCC(C)(C)C)c(F)cc1F [Example 47, 1-(2,4-difluoro-5-(7-(2-hydroxyethylamino)-2-methyl-1,6-naphthyridin-3-yl)phenyl)-3-(3,3-dimethylbutyl)urea] | 50% | 2 to 96 nM | 9 to 504 nM | 0.5-4.9 fold | 
3 | CNc1cc2nc(C)c(-c3cc(NC(=O)NC[C@H](O)C(C)(C)C)c(F)cc3C)cc2cn1 [Example 57, (R)-1-(2-fluoro-4-methyl-5-(2-methyl-7-(methylamino)-1,6-naphthyridin-3-yl)phenyl)-3-(2-hydroxy-3,3-dimethylbutyl)urea] | 96% | 2 to 96 nM | 9 to 504 nM | 0.5-4.9 fold | 
4 | CNc1cc2nc(C)c(-c3cc(NC(=O)NCCC(C)(C)F)c(F)cc3C)cc2cn1 [Example 76, 1-(3-fluoro-3-methylbutyl)-3-(2-fluoro-4-methyl-5-(2-methyl-7-(methylamino)-1,6-naphthyridin-3-yl)phenyl)urea] |  | 2 to 96 nM | 9 to 504 nM | 0.5-4.9 fold | tumor growth (A375 xenograft tumor; twice a day at 10 or 30 mg/kg): tumor growth inhibition and tumor growth regression; animal body weight loss ([2]; twice a day at 10 or 30 mg/kg): minimal animal body weight loss; IC50 (A-Raf): 120 nM; IC50 (C-Raf): 170 nM; IC50 (B-Raf (V600E); first B-Raf (V600E) column): 16 nM; IC50 (B-Raf (V600E); second B-Raf (V600E) column): 22 nM; IC50 [4]: < 170 nM
5 | CNc1cc2nc(C)c(-c3cc(NC(=O)N[C@H]4C[C@](C)(F)C4)c(F)cc3C)cc2cn1 [Example 77, 1-(3-fluoro-cis(3-methylcyclobutyl))-3-(2-fluoro-4-methyl-5-(2-methyl-7-(methylamino)-1,6-naphthyridin-3-yl)phenyl)urea] | 96% | 2 to 96 nM | 9 to 504 nM | 0.5-4.9 fold | 
6 | Cc1cc(F)c(NC(=O)NCCC(C)(C)F)cc1-c1cc2cnc(N)cc2nc1C [Example 79, 1-(5-(7-amino-2-methyl-1,6-naphthyridin-3-yl)-2-fluoro-4-methylphenyl)-3-(3-fluoro-3-methylbutyl)urea] | 87% | 2 to 96 nM | 9 to 504 nM | 0.5-4.9 fold | tumor growth (A375 xenograft tumor; twice a day at 15 or 30 mg/kg): tumor growth inhibition; animal body weight loss ([2]; twice a day at 15 or 30 mg/kg): minimal animal body weight loss
7 | CNc1cc2nc(C)c(-c3cc(NC(=O)NCCC(C)(C)C(F)(F)F)c(F)cc3C)cc2cn1 [Example 89, 1-(2-fluoro-4-methyl-5-(2-methyl-7-(methylamino)-1,6-naphthyridin-3-yl)phenyl)-3-(4,4,4-trifluoro-3,3-dimethylbutyl)urea hydrochloride] | 84% | 2 to 96 nM | 9 to 504 nM | 0.5-4.9 fold | 
8 | CNc1cc2nc(C)c(-c3cc(NC(=O)NCCC(C)(C)OC)c(F)cc3C)cc2cn1 [Example 92, 1-(2-fluoro-4-methyl-5-(2-methyl-7-(methylamino)-1,6-naphthyridin-3-yl)phenyl)-3-(3-methoxy-3-methylbutyl)urea hydrochloride] | 77% | 2 to 96 nM | 9 to 504 nM | 0.5-4.9 fold | 
9 | CCCS(=O)(=O)Nc1ccc(F)c(C(=O)c2c[nH]c3ncc(Cl)cc23)c1F [PLX4720, N-[3-(5-chloro-1H-pyrrolo[2,3-b]pyridine-3-carbonyl)-2,4-difluorophenyl]propane-1-sulfonamide, reference compound] |  |  |  |  | IC50 shift A375 to A375res (A375res cells [5]; 72 hour proliferation assay): more than 27 fold; IC50 (A375res cells [5]; read-out: IC50 proliferation): > 10000 nM; IC50 (A375 cells): 369 nM
10 | CCCS(=O)(=O)Nc1ccc(F)c(C(=O)c2c[nH]c3ncc(-c4ccc(Cl)cc4)cc23)c1F [vemurafenib, reference compound] |  |  |  | more than 57 fold | IC50 (A375res cells [5]; read-out: IC50 proliferation): > 10000 nM; IC50 (A375 cells): 175 nM; effect on pERK signal ([3]; at concentrations up to about 3 uM): stimulates the pERK signal
